Assay results as given in patent US7208517B1, “Endothelin antagonists” (Abbott Labortories, priority 1994, dated 2007).

Molecular target: T1, ETA Receptor (Rattus norvegicus, UniProt P26684)
T1 construct: endogenous in cells; host or cells: MMQ rat pituitary cells (membranes)
T1 sequence (P26684 21-426): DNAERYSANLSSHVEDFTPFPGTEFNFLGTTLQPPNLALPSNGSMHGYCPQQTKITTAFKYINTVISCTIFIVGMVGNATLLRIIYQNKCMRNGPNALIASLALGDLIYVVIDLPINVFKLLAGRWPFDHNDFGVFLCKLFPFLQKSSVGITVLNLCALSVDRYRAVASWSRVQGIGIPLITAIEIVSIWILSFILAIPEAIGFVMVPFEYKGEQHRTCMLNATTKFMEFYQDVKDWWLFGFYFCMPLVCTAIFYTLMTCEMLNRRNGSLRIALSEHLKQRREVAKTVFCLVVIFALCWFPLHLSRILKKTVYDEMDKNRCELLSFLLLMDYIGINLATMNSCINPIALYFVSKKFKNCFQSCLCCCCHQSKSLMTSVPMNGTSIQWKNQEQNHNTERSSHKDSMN
Assay: [125I]ET-1 binding to membranes from MMQ cells (ETA receptor binding assay, Table 4)
Settings: test compound at 1 μM; 0.1 nM [125I]ET-1, MMQ cell membranes, 4 hours at 25° C.
Description: Preparation of Membranes from MMQ Cells:
MMQ [MacLeod/MacQueen/Login cell line (prolactin secreting rat pituitary cells)] cells from 150 mL culture flasks were collected by centrifugation (1000×g for 10 min) and then homogenized in 25 mL of 10 mM Hepes (pH 7.4) containing 0.25 M sucrose and protease inhibitors [3 mM EDTA, 0.1 mM PMSF, and 5 μg/mL Pepstatin A] by a micro ultrasonic cell disrupter (Kontes). The mixture was centrifuged at 1000×g for 10 min. The supernatant was collected and centrifuged at 60,000×g for 60 min. The precipitate was resuspended in 20 mM Tris, pH 7.4 containing the above protease inhibitors and centrifuged again. The final pellet was resuspended in 20 mM Tris, pH 7.4 containing protease inhibitors and stored at −80° C. until used. Protein content was determined by the Bio-Rad dye-binding protein assay.
Binding assays were performed in 96-well microtiter plates pretreated with 0.1% BSA. […] After incubation, unbound ligands were separated from bound ligands by a vacuum filtration method using glass-fiber filter strips in PHD cell harvesters (Cambridge Technology, Inc., MA), followed by washing the filter strips with saline (1 mL) for three times. Nonspecific binding was determined in the presence of 1 μM ET-1.

| % Inhibition of ETA at 1 μM | SMILES |
| --- | --- |
| 91.6% | CCCCN(CCCC)C(=O)C(C)N1CC(c2ccc3c(c2)OCO3)C(C(=O)O)C1c1ccc(OC)cc1 (racemic) [Example 91C, trans,trans-2-(4-Methoxyphenyl)-4-(1,3-benzodioxol-5-yl)-1-((N,N-dibutylamino)carbonyl-1-(RS)-ethyl)pyrrolidine-3-carboxylic acid] |
| 89.8% | COc1ccc(C2C(C(=O)O)C(c3ccc4c(c3)OCO4)CN2CC(=O)N2CC[C@@H]3CCCC[C@H]3C2)cc1 (relative stereo) [Example 293, trans—trans-2-(4-Methoxyphenyl)-4-(1,3-benzodioxol-5-yl)-1-[decahydroisoquinolin-2-carbonylmethyl]-pyrrolidine-3-carboxylic acid] |
| 87.2% | CCCN(CCN1C[C@H](c2ccc3c(c2)OCO3)[C@@H](C(=O)O)[C@@H]1c1ccc(OC)cc1)S(=O)(=O)CC(C)C (relative stereo) [Example 303, trans,trans-2-(4-Methoxyphenyl)-4-(1,3-benzodioxol-5-yl)-1-(2-(N-propyl-N-(2-methylpropanesulfonyl)amino)ethyl)-pyrrolidine-3-carboxylic acid] |
| 82.7% | CCCN(CCN1C[C@H](c2ccc3c(c2)OCO3)[C@@H](C(=O)O)[C@@H]1c1ccc(OC)cc1)S(=O)(=O)N(C)C (relative stereo) [Example 315, trans,trans-2-(4-Methoxyphenyl)-4-(1,3-benzodioxol-5-yl)-1-(2-(N-propyl-N-dimethylsulfamoylamino)ethyl)-pyrrolidine-3-carboxylic acid] |
| 58.4% | COc1ccc(C2C(C(=O)O)C(c3ccc4c(c3)OCO4)CN2CC(N)=O)cc1 (stereo not drawn) [Example 2, trans,trans-2-(4-Methoxyphenyl)-4-(1,3-benzodioxol-5-yl)-1-(aminocarbonylmethyl)-pyrrolidine-3-carboxylic acid] |
| 42.2% | COc1ccc(C2C(C(=O)O)C(c3ccc4c(c3)OCO4)CN2Cc2ccc(F)cc2)cc1 (stereo not drawn) [Example 3, trans,trans-2-(4-Methoxyphenyl)-4-(1,3-benzodioxol-5-yl)-1-(4-fluorobenzyl)-pyrrolidine-3-carboxylic acid] |
| 78.2% | CCOCCN1CC(c2ccc3c(c2)OCO3)C(C(=O)O)C1c1ccc(OC)cc1 (stereo not drawn) [Example 4, trans,trans-2-(4-Methoxyphenyl)-4-(1,3-benzodioxol-5-yl)-1-(2-ethoxyethyl)-pyrrolidine-3-carboxylic acid] |
| 95.1% | CCCOCCN1CC(c2ccc3c(c2)OCO3)C(C(=O)O)C1c1ccc(OC)cc1 (stereo not drawn) [Example 5, trans,trans-2-(4-Methoxyphenyl)-4-(1,3-benzodioxol-5-yl)-1-(2-propoxyethyl)-pyrrolidine-3-carboxylic acid] |
| 34.9% | COCCOCCN1CC(c2ccc3c(c2)OCO3)C(C(=O)O)C1c1ccc(OC)cc1 (stereo not drawn) [Example 6B, trans,trans-2-(4-Methoxyphenyl)-4-(1,3-benzodioxol-5-yl)-1-[2-(2-methoxyethoxy)ethyl]-pyrrolidine-3-carboxylic acid] |
| 63.4% | COc1ccc(C2C(C(=O)O)C(c3ccc4c(c3)OCO4)CN2CCc2ccccn2)cc1 (stereo not drawn) [Example 7, trans,trans-2-(4-Methoxyphenyl)-4-(1,3-benzodioxol-5-yl)-1-[2-(2-pyridyl)ethyl]-pyrrolidine-3-carboxylic acid] |
| 69.2% | CCCCNC(=O)N1CC(c2ccc3c(c2)OCO3)C(C(=O)O)C1c1ccc(OC)cc1 (stereo not drawn) [Example 9, trans,trans-2-(4-Methoxyphenyl)-4-(1,3-benzodioxole-5-yl)-1-(butylaminocarbonyl)-pyrrolidine-3-carboxylic acid] |
| 66.1% | COc1ccc(NC(=O)N2CC(c3ccc4c(c3)OCO4)C(C(=O)O)C2c2ccc(OC)cc2)cc1 (stereo not drawn) [Example 10, trans,trans-2-(4-Methoxyphenyl)-4-(1,3-benzodioxol-5-yl)-1-(4-methoxyphenylaminocarbonyl)-3-pyrrolidine-3-carboxylic acid] |
| 73.9% | COc1ccc(C2C(C(=O)O)C(c3ccc4c(c3)OCO4)CN2CC(=O)N2CCCC2)cc1 (stereo not drawn) [Example 17, trans,trans-2-(4-Methoxyphenyl)-4-(1,3-benzodioxol-5-yl)-1-(pyrrolidin-1-ylcarbonylmethyl)-pyrrolidine-3-carboxylic acid] |
| 56.3% | COc1ccc(C2C(C(=O)O)C(c3ccc4c(c3)OCO4)CN2CCOc2ccccc2)cc1 (stereo not drawn) [Example 21, trans,trans-2-(4-Methoxyphenyl)-4-(1,3-benzodioxol-5-yl)-1-(2-phenoxyethyl)-pyrrolidine-3-carboxylic acid] |
| 83.0% | COCCOCCN1CC(c2ccc(OC)cc2)C(C(=O)O)C1c1ccc2c(c1)OCO2 (stereo not drawn) [Example 26, trans,trans-2-(1,3-Benzodioxol-5-yl)-4-(4-methoxyphenyl)-1-[2-(2-methoxyethoxy)ethyl)]-pyrrolidine-3-carboxylic acid] |
| 85.3% | CCCN(C)C(=O)CN1CC(c2ccc3c(c2)OCCO3)C(C(=O)O)C1c1ccc(OC)cc1 (stereo not drawn) [Example 29, trans,trans-2-(4-Methoxyphenyl)-4-(1,4-benzodioxan-6-yl)-1-(N-methyl-N-propylaminocarbonylmethyl)-pyrrolidine-3-carboxylic acid] |
| 95.5% | COc1ccc(C2C(C(=O)O)C(c3ccc4c(c3)OCO4)CN2CC(=O)N(CCC(C)C)CCC(C)C)cc1 (stereo not drawn) [Example 34, trans,trans-2-(4-Methoxyphenyl)-4-(1,3-benzodioxol-5-yl)-1-(N,N-diisoamylaminocarbonylmethyl)-pyrrolidine-3carboxylic acid] |
| 91.8% | CCCCCN(CCCCC)C(=O)CN1CC(c2ccc3c(c2)OCO3)C(C(=O)O)C1c1ccc(OC)cc1 (stereo not drawn) [Example 35, trans,trans-2-(4-Methoxyphenyl)-4-(1,3-benzodioxol-5-yl)-1-(N,N-dipentylaminocarbonylmethyl)-pyrrolidine-3-carboxylic acid] |
| 94.5% | COCCN(CCOC)C(=O)CN1CC(c2ccc3c(c2)OCO3)C(C(=O)O)C1c1ccc(OC)cc1 (stereo not drawn) [Example 36, trans,trans-2-(4-Methoxyphenyl)-4-(1,3-benzodioxol-5-yl)-1-(N,N-di(2-methoxyethyl)aminocarbonylmethyl)-pyrrolidine-3-carboxylic acid] |
| 47.9% | CCCC#CCN1CC(c2ccc3c(c2)OCO3)C(C(=O)O)C1c1ccc(OC)cc1 (stereo not drawn) [Example 37, trans,trans-2-(4-Methoxyphenyl)-4-(1,3-benzodioxol-5-yl)-1-(2-hexynyl)-pyrrolidine-3-carboxylic acid] |
| 100.0% | CCCN(CC1CC1)C(=O)CN1CC(c2ccc3c(c2)OCO3)C(C(=O)O)C1c1ccc(OC)cc1 (stereo not drawn) [Example 38, trans,trans-2-(4-Methoxyphenyl)-4-(1,3-benzodioxol-5-yl)-1-(N-cyclopropylmethyl-N-propylaminocarbonylmethyl)-pyrrolidine-3-carboxylic acid] |
| 83.6% | CCCCCN(C)C(=O)CN1CC(c2ccc3c(c2)OCO3)C(C(=O)O)C1c1ccc(OC)cc1 (stereo not drawn) [Example 39, trans,trans-2-(4-Methoxyphenyl)-4-(1,3-benzodioxol-5-yl)-1-(N-methyl-N-pentylaminocarbonylmethyl)-pyrrolidine-3-carboxylic acid] |
| 89.9% | C#CCN(C)C(=O)CN1CC(c2ccc3c(c2)OCO3)C(C(=O)O)C1c1ccc(OC)cc1 (stereo not drawn) [Example 41, trans,trans-2-(4-Methoxyphenyl)-4-(1,3-benzodioxol-5-yl)-1-(N-methyl-N-(2-propynyl)aminocarbonylmethyl)-pyrrolidine-3-carboxylic acid] |
| 95.2% | CCCCCCN(C)C(=O)CN1CC(c2ccc3c(c2)OCO3)C(C(=O)O)C1c1ccc(OC)cc1 (stereo not drawn) [Example 42, trans,trans-2-(4-Methoxyphenyl)-4-(1,3-benzodioxol-5-yl)-1-(N-methyl-N-(n-hexyl)aminocarbonylmethyl)-pyrrolidine-3-carboxylic acid] |

| SMILES | % Inhibition of ETA at 1 μM |
| --- | --- |
| CCCCOCCN1CC(c2ccc3c(c2)OCO3)C(C(=O)O)C1c1ccc(OC)cc1 (stereo not drawn) [Example 23, trans,trans-2-(4-Methoxyphenyl)-4-(1,3-benzodioxol-5-yl)-1-(2-butoxyethyl)-pyrrolidine-3-carboxylic acid] | 85.9% |
| CCCCOCCN1CC(c2ccc(OC)cc2)C(C(=O)O)C1c1ccc2c(c1)OCO2 (stereo not drawn) [Example 27, trans,trans-2-(1,3-Benzodioxol-5-yl)-4-(4-methoxyphenyl)-1-(butoxyethyl)-pyrrolidine-3-carboxylic acid] | 61.2% |
